Patent US8263754B2, “Amphiphiles for protein solubilization and stabilization” (Wisconsin Alumni Research Foundation, priority 2008, dated 2012)
Entries after “also recorded” stand apart in the source; their conditions may differ. Where two headings read alike, the source gives them in different places.

Columns and labels:
[1] = system: LHI-RC superassembly in Rhodobacter capsulatus membranes; conditions: for extraction of LHI-RC superassembly from R. capsulatus membranes: solubilized protein, optical spectroscopy; for Level (S/P solubilization rank and detergent strength): detergent at 10x CMC, 30 minutes at 32° C.
From the text: These complexes, normally embedded in the bacterial membrane, are highly pigmented and several outcomes from an assay are possible, including no degradation, partial degradation or complete degradation upon solubilization, or no solubilization. Thus, graded comparative evaluations could be obtained for a set of candidates such as the amphiphiles described herein.
In the engineered strain of R. capsulatus employed, the photosynthetic unit was comprised of a very labile LHI complex and a more resilient RC complex. An ideal amphiphile for this system will extract the intact LHI-RC superassembly from a bacterial membrane preparation and maintain the natural interactions among the components. Amphiphiles with a more disruptive effect will dissociate and denature LHI, leaving only intact RC, and even harsher amphiphiles will cause RC degradation. Each of these various outcomes can be assessed unambiguously via optical spectroscopy (FIG. 2 inset).
Measurements. The starting material for the screening protocols and stability measurements included specialized photosynthetic membranes from an engineered strain of Rhodobacter (R.) capsulatus, U43[pUHTM86Bgl]
To begin the solubilization and purification process, frozen aliquots of R. capsulatus membranes were thawed, homogenized, and equilibrated to 32° C. for 30 minutes. […] For subsequent experiments, the amphiphiles were evaluated at 10-fold CMC during the solubilization step.
The membrane samples were allowed to incubate with the amphiphile for 30 minutes at 32° C. The solubilized material was then separated from the membrane debris in an ultracentrifuge at 315,000×g at 4° C. for 30 minutes. […] After a UV-Vis-nearIR absorption spectrum was recorded, the resuspended pellet was discarded. […] The tubes were then incubated and inverted for 1 hour at 4° C.
Once binding was complete, samples were loaded onto resin-retaining spin columns (e.g., emptied His Spin Trap™ columns; GE Healthcare). The columns were then inserted into a 2 mL microcentrifuge tube to retain the filtered solution during centrifugation. […] Finally, protein was eluted into a fresh microcentrifuge tube with three 0.2 mL elution buffer aliquots (this buffer was identical to binding buffer with the addition of 1 M imidazole).
The R. capsulatus LHI-RC complexes extracted and purified by this procedure contain large numbers of cofactors that have absorptions at distinct wavelengths, and each component of the LHI-RC superassembly has a different inherent stability outside the lipid bilayer. The solubilization protocol outlined above therefore provides a multifaceted assessment of the efficacy of conventional detergents and novel amphiphiles. UV-Vis absorption spectroscopy data obtained at various stages of the protocol allow one to determine which protein components have degraded at these stages. […] The disruption potential was measured as the yield of superassembly extracted during solubilization (or, alternatively and more precisely, as the absence of superassembly in the pellet from the spin following solubilization).
The stabilizing propensity was determined from the spectra of the purified protein. An amphiphile was judged to be mild and stabilizing if it allowed the purification of fully intact LHI-RC superassembly (dominant absorption band at 875 nm). […] An amphiphile was judged to be of intermediate strength if it allowed for the purification of fully intact RC with damaged or missing LHI (dominant absorption at 800 nm with a shoulder at 875 nm; damaged LHI still bound to RC absorbs at 760 nm).
First, solubilization (illustrated in “STEP 1” of FIG. 12) denotes the ability of a surfactant to penetrate, integrate and disrupt a lipid bilayer.

[2] = Critical micelle concentration (CMC) by dye solubilization (Orange OT or DPH); format: physicochemical; conditions: for critical micelle concentration (CMC): aqueous solubilization of Orange OT; for CMC / CMC (%): determined by DPH (diphenylhexatriene) or Orange OT
From the text: Aqueous solubilization of Orange OT was used to determine critical micelle concentrations (CMC). […] Facile self-association of these amphiphiles under these conditions may be hindered by the hydrophilicity and/or steric bulk of the triglucoside and dimaltoside headgroups.
The Critical Micelle Concentrations (CMCs) of compounds of the invention can be determined by standard techniques known to those of skill in the art. For example, CMCs of the carbohydrate-based amphiphiles described herein can be determined by monitoring uptake of a dye (e.g., Orange OT or 1,6-diphenylhexatriene) with increasing detergent concentration, monitored by UV-visible or fluorescence spectroscopy.

[3] = system: T1, LHI-RC superassembly; assay: Stability over time of solubilized, purified LHI-RC superassembly (A875/A680 ratio); parameters: species or system Rhodobacter capsulatus; conditions: room temperature, 875 nm/680 nm absorption ratio over two to three weeks
T1 construct: Starting with protein complexes in their native lipid bilayer; made in house; host or cells: Rhodobacter capsulatus U43[pUHTM86Bgl], intracytoplasmic membranes (strain lacks LHII)
Procedure: FIG. 3. To monitor the ability of micelles of DDM, TPA-2, and MPA-2(C12) to stabilize membrane protein complexes, spectra of the protein purified by each detergent were recorded as a function of time. The initial spectrum (t=0) was acquired directly after elution of the protein from affinity chromatography. The integrity of the LHI-RC superassembly solubilized by these relatively mild detergents was monitored quantitatively from a scatter-corrected absorbance ratio (A875/A680). The ratio of a sample of completely folded and functional supperassembly is >14.5, and this ratio declines dramatically as the multi-subunit complex disassembles and denatures.
Stability was monitored by following the 875 nm/680 nm absorption ratio over a two to three weeks (absorption at 680 nm arises from oxidation of bacteriochlorophyll that has dissociated from LHI protein).
Similar criteria and protocols were used to judge the ability of amphiphiles to maintain solubilized and purified superassembly for extended periods. In this case, UV Vis-nearIR spectra were recorded at regular intervals. The degradation of the material could be monitored with the A875/A680 absorbance ratio, which decreased with time and sample integrity as the dominant 875 nm absorption of intact LHI disappeared and a 680 nm band appeared, indicating the presence of unbound, oxidized cofactors.

[4] = cited from earlier work; for Buffer Range: pH range
[5] = Solubility in water / aqueous buffer; format: physicochemical; conditions: for solubility in water: without cosolvents/additives

## CCCCCCCCCCCCC(=O)NC(CO[C@@H]1O[C@H](CO)[C@@H](O)[C@H](O)[C@H]1O)CO[C@@H]1O[C@H](CO)[C@@H](O)[C@H](O)[C@H]1O [C12-MPA2]
[1]; after extraction from R. capsulatus membranes
  yield of membrane protein complexes purified by affinity chromatography: far greater yield
[1]; intracytoplasmic membranes of R. capsulatus
  membrane protein complexes in the sample extracted: ~30%
[1]
  extraction of LHI-RC superassembly from R. capsulatus membranes: extracted a moderate amount of intact LHI-RC superassembly
[2]
  critical micelle concentration (CMC): 2.4 mM
  CMC: 2.4 mM
  CMC (%): 0.15%

## CCCCCCCCCCCCCCCCC(=O)NC(CO[C@@H]1O[C@H](CO)[C@@H](O)[C@H](O)[C@H]1O)CO[C@@H]1O[C@H](CO)[C@@H](O)[C@H](O)[C@H]1O [C16-MPA2]
[1]
  Level (S/P solubilization rank and detergent strength): insoluble

## CCCCCCCCCCCCO[C@@H]1O[C@H](CO)[C@@H](O[C@H]2O[C@H](CO)[C@@H](O)[C@H](O)[C@H]2O)[C@H](O)[C@H]1O [DDM, dodecyl-β-D-maltopyranoside, reference compound]
[3]
  stability of solubilized LHI-RC superassembly: begins to degrade immediately
[1]
  extraction of LHI-RC superassembly from R. capsulatus membranes: comparable to TPA-2 and TPA-2-S

## O=S(=O)(O)CCN1CCN(CCO)CC1 [HEPES, 4-2-hydroxyethyl-1-piperazineethanesulfonic acid]
[4]
  Buffer Range: 6.8-8.2

## O=S(=O)(O)CCCN1CCOCC1 [MOPS, 3-(N-morpholino)propanesulfonic acid]
[4]
  Buffer Range: 6.5-7.9

## CCCCCCCCCCCCC(=O)NCCO[C@@H]1O[C@H](CO)[C@@H](O)[C@H](O)[C@H]1O [MPA1]
[1]
  Level (S/P solubilization rank and detergent strength): insoluble
[5]
  solubility in aqueous buffer: not soluble in aqueous buffer
  solubility in water: not soluble in water without other additives

## CCCCCCCCCCCCC(=O)NC(CO[C@@H]1O[C@H](CO)[C@@H](O)[C@H](O)[C@H]1O)(CO[C@@H]1O[C@H](CO)[C@@H](O)[C@H](O)[C@H]1O)CO[C@@H]1O[C@H](CO)[C@@H](O)[C@H](O)[C@H]1O [MPA3]
[1]
  extraction of LHI-RC superassembly from R. capsulatus membranes: did not extract any protein
[2]
  critical micelle concentration (CMC): 4.4 mM
  CMC: 4.4 mM
  CMC (%): 0.35%

## CCCCCCCCCCCCC(=O)NCCO[C@@H]1O[C@H](CO)[C@@H](O[C@H]2O[C@H](CO)[C@@H](O)[C@H](O)[C@H]2O)[C@H](O)[C@H]1O [MPA4]
[1]
  Level (S/P solubilization rank and detergent strength): insoluble
[5]
  solubility in aqueous buffer: not soluble in aqueous buffer
  solubility in water: not soluble in water without other additives

## CCCCCCCCCCCCC(=O)NC(CO[C@@H]1O[C@H](CO)[C@@H](O[C@H]2O[C@H](CO)[C@@H](O)[C@H](O)[C@H]2O)[C@H](O)[C@H]1O)CO[C@@H]1O[C@H](CO)[C@@H](O[C@H]2O[C@H](CO)[C@@H](O)[C@H](O)[C@H]2O)[C@H](O)[C@H]1O [MPA5]
[1]
  extraction of LHI-RC superassembly from R. capsulatus membranes: did not extract any protein
[2]
  critical micelle concentration (CMC): 1.7 mM
  CMC: 1.7 mM
  CMC (%): 0.16%

## O=S(=O)(O)CCN1CCN(CCS(=O)(=O)O)CC1 [PIPES, piperazine-N,N′-bis(2-ethanesulfonic acid)]
[4]
  pKa at 25° C.: 6.76
  Buffer Range: 6.1-7.5

## O=S(=O)(O)CCCNC(CO)(CO)CO [TAPS, 3-{[tris(hydroxymethyl)methyl]amino}propanesulfonic acid]
[4]
  pKa at 25° C.: 8.43
  Buffer Range: 7.7-9.1

## O=S(=O)(O)CCNC(CO)(CO)CO [TES, 2-{[tris(hydroxymethyl)methyl]amino}ethanesulfonic acid]
[4]
  Buffer Range: 6.8-8.2

## CCCCC(CCCC)(CC(=O)NCCOC1OC(CO)C(O)C(O)C1O)c1ccccc1 (centres unmarked) [TPA1]
[1]
  Level (S/P solubilization rank and detergent strength): insoluble
[5]
  solubility in water: not water-soluble without other cosolvents

## CCCCC(CCCC)(CC(=O)NC(CO[C@H]1OC(CO)[C@H](O)C(O)[C@H]1O)CO[C@H]1OC(CO)[C@H](O)C(O)[C@H]1O)c1ccccc1 (some centres unmarked) [TPA2]
[3]
  stability of solubilized LHI-RC superassembly: remains stable for several days
[1]; solubilized protein from R. capsulatus membranes
  875 nm/760 nm absorption ratio: ~8
[1]
  extraction of LHI-RC superassembly from R. capsulatus membranes: intact LHI-RC superassembly in high yield
[2]
  critical micelle concentration (CMC): 3.6 mM
  CMC: 3.6 mM
  CMC (%): 0.24%

## CCCCC(CCCC)(CC(=O)NC(COC1OC(CO)C(O)C(O)C1O)(COC1OC(CO)C(O)C(O)C1O)COC1OC(CO)C(O)C(O)C1O)c1ccccc1 (centres unmarked) [TPA3]
[1]
  extraction of LHI-RC superassembly from R. capsulatus membranes: no protein is extracted from the membrane

## CCCCC(CCCC)(CC(=O)NCCO[C@@H]1O[C@H](CO)[C@@H](O[C@H]2O[C@H](CO)[C@@H](O)[C@H](O)[C@H]2O)[C@H](O)[C@H]1O)c1ccccc1 [TPA4]
[1]
  extraction of LHI-RC superassembly from R. capsulatus membranes: extracts a significant proportion of the membrane-embedded protein
[2]
  critical micelle concentration (CMC): 4.0 mM
  CMC: 4 mM
  CMC (%): 0.25%

## CCCCC(CCCC)(CC(=O)NC(CO[C@@H]1O[C@H](CO)[C@@H](O[C@H]2O[C@H](CO)[C@@H](O)[C@H](O)[C@H]2O)[C@H](O)[C@H]1O)CO[C@@H]1O[C@H](CO)[C@@H](O[C@H]2O[C@H](CO)[C@@H](O)[C@H](O)[C@H]2O)[C@H](O)[C@H]1O)c1ccccc1 [TPA5]
[1]
  extraction of LHI-RC superassembly from R. capsulatus membranes: solubilized a small proportion of relatively intact LHI-RC superassembly

## CCCCC(CCCC)(CC(=O)NC(CO[C@H]1OC(CO)[C@H](O)C(O)C1O)CO[C@H]1OC(CO)[C@H](O)C(O)C1O)C1CCCCC1 (some centres unmarked) [TPA21]
[3]
  stability of solubilized LHI-RC superassembly: more stabilizing than those of TPA-2
[1]; listed as TPA-2-S
  extraction of LHI-RC superassembly from R. capsulatus membranes: as good as or better than TPA-2 at extracting membrane proteins; also recorded: at least as effective as TPA-2, if not superior; also recorded: equal to or superior to TPA-2 at extracting membrane proteins
[2]
  critical micelle concentration (CMC): 1.8 mM
  CMC: 1.8 mM
  CMC (%): 0.12%

## OCC1O[C@H](OCC23CC4CC(CC(C4)C2)C3)[C@H](O)C(O)[C@H]1O (some centres unmarked) [TPA 42]
[1]
  Level (S/P solubilization rank and detergent strength): insoluble

## OC[C@H]1O[C@@H](OCCC23CC4CC(CC(C4)C2)C3)[C@H](O)[C@@H](O)[C@@H]1O [TPA 43]
[1]
  Level (S/P solubilization rank and detergent strength): insoluble

## O=C(O)CNC(CO)(CO)CO [Tricine, N-tris(hydroxymethyl)methylglycine]
[4]
  Buffer Range: 7.4-8.8

## NC(CO)(CO)CO [Tris, tris(hydroxymethyl)methylamine]
[4]
  Buffer Range: 7.5-9.0
